Ends that are not written are not given here. * marks the point of attachment. Palmitoyl = CCCCCCCCCCCCCCCC(=O)*
Assays:
CD34+ cells = details: cited from earlier work
[1] = tested on: hematopoietic progenitors; assay: Colony-forming assay of spleen cells (CFU/spleen); type: in vivo, mice; details: for precursor mobilization (CFU/spleen), enhancement as compared to non-treated mice: antagonist added to G-CSF treatment; for circulating CFU/spleen compared with C57BL/6 mice: at 7 days after G-CSF treatment, P<0.05 vs C57BL/6 (n=5), FIG. 3 legend
Procedure: All animals were maintained under conditions approved by the Institutional Animal Care and Use Committee at the Weizmann Institute. The study protocol was approved by the ethics committees at Weizmann Institute. In these experiments, 8 to 10 week old immune competent C57BL mice and C57BL hemophilic (C57BL Hem F8) mice were used. All mice were kept in small cages (up to five animals per cage) and fed sterile food. Cells were plated in 0.9% methylcellulose (Sigma Chemical Co.), 30% FCS, DMEM medium (Sigma Chemical Co.), 50 ng/ml stem cell factor (SCF), 5 ng/ml IL-3 (R&D Systems Inc.), 5 ng/ml GM-CSF (R&D Systems Inc.), and 2 U/ml erythropoietin (EPO; Orto Bio Tech, Don Mills, Ontario, Canada). Total spleen cells 5×10^5 were seeded in semisolid cultures. Colonies were scored 7 days later under an inverted microscope (CK2; Olympus), applying morphological criteria. To study the role of thrombin in the mobilization of hematopoietic progenitors, inventors enumerated these cells by their ability to form colonies in semi-solid media. Thus, after 7 days of treatment with G-CSF with or without PAR antagonists, the number of hematopoietic progenitors in the spleen was estimated by plating the low density mononuclear cells in methylcellulose containing appropriate nutrients and growth factors (see materials and experimental procedures, above). The plates were incubated for 7 days and the colonies were scored using a low magnification microscope. The number of progenitors mobilized into the spleen was presented as CFU/spleen (FIG. 3). […] However, the addition of PAR1 or PAR4 antagonists to G-CSF treatment led to further enhancement of precursor mobilization by 15.3 and 6.4 fold, respectively (as compared to non-treated mice). Likewise, in Factor VIII knock out (KO) mice, which have low thrombin levels due to the absence of Factor VIII, an enhancement of spleen colonies by a factor of 15.9 was recorded upon treatment with G-CSF.

C57BL mice = assay: G-CSF induced splenomegaly (spleen weight) in C57BL mice; type: in vivo
Procedure: All animals were maintained under conditions approved by the Institutional Animal Care and Use Committee at the Weizmann Institute. The study protocol was approved by the ethics committees at Weizmann Institute. In these experiments, 8 to 10 week old immune competent C57BL mice were used. All mice were kept in small cages (up to five animals per cage) and fed sterile food.
Mice were treated by daily subcutaneous injections of recombinant human G-CSF (Neupogen, Amgen) at a dose of 250 μg per kg per day for 7 days. To determine the spleen weight, mice were euthanized and spleens were harvested 7 days after the initiation of G-CSF treatment.
Dabigatran etexilate (Boehringer Ingelheim Pharma KG, Biberach, Germany) was administered orally at a dosage of 30 mg/kg. A final volume of 0.3 ml dissolved in DDW was administered daily.
The palmitoylated peptides: pal-RCLSSSAVANRS (PAR1 antagonist, SEQ ID NO: 1) and pal-SGRRYGHALR (PAR4 antagonist, SEQ ID NO: 2) were prepared by solid-phase peptide synthesis using in situ neutralization/HBTU by Hadar Biotec, Israel. The mice were treated by vehicle control, or with PAR1 antagonist or PAR4 antagonist at 0.5 mg/kg, intraperitoneally on daily basis.

spleen cells = assay: Cellular composition of spleen by flow cytometry; type: in vivo, mouse; details: for B cells (B220) / Granulocytes (Gr-1) / Macrophages (CD11b) / T cells (CD3): spleen, C57BL mice, 7 days treatment, mean ± SD
Procedure: (§1) Membrane expression of different molecules on mouse bone marrow (BM) and spleen cells was detected by flow cytometry, using one- or two-step staining procedures.
(§2) Cellular composition of the hematopoietic compartment was stained by CD3-FITC, B220-PE, CD-11b allophycocyanin and Gr-1 FITC ((Pharmigen, BD).
(§3) After staining, cells were washed and analyzed LSRII (Becton Dickinson) using FlowJo software.
(§4) Comparisons between the different groups were evaluated using the Student's test. Data were expressed as mean±SD, and were considered statistically significant at p values of 0.05 or less.

bone marrow (BM) cells = assay: Cellular composition of bone marrow by flow cytometry; type: in vivo, mouse; details: for B cells (B220) / Granulocytes (Gr-1) / Macrophages (CD11b) / T cells (CD3): bone marrow, C57BL mice, 7 days treatment, mean ± SD
Procedure: as §1, §2, §3, §4

Lin−Kit+Sca+ stem cell = assay: Lin-Kit+Sca+ stem cell numbers in blood, spleen and BM by FACS; type: in vivo, mouse; details: FIG. 4
Text: Membrane expression of different molecules on mouse bone marrow (BM), spleen and peripheral blood (PB) mononuclear cells (MNCs) was detected by flow cytometry, using one- or two-step staining procedures.
Cells were stained for lineage negative Lin− (CD3, B220, CD11b, Gr-1 and Ten-119 were biotinilated and detected by strepavidine Pe-Cy7), stem cell factor receptor positive (c-kit allophycocyanin+), stem cell antigen-1 positive (Sca-1 PE+) using Pharmigen, BD.
After staining, cells were washed and analyzed on LSRII (Becton Dickinson) using FlowJo software.
as §4

HSPC = details: after a single injection; cited from earlier work
C57BL/6 mice = details: 7 day daily G-CSF treatment of C57BL/6 mice; cited from earlier work
[2] = with G-CSF for 7 days, antagonist 0.5 mg/kg intraperitoneally daily, FIG. 2

Molecule | precursor mobilization (CFU/spleen), enhancement as compared to non-treated mice ([1]; 7 days, C57BL mice, FIG. 3) [fold] | circulating CFU/spleen compared with C57BL/6 mice [1] | G-CSF induced splenomegaly (C57BL mice; [2]) | B cells (B220) (spleen cells) [%] | Granulocytes (Gr-1) (spleen cells) [%] | Macrophages (CD11b) (spleen cells) [%] | T cells (CD3) (spleen cells) [%] | B cells (B220) (bone marrow (BM) cells) [%] | Granulocytes (Gr-1) (bone marrow (BM) cells) [%] | Macrophages (CD11b) (bone marrow (BM) cells) [%] | T cells (CD3) (bone marrow (BM) cells) [%] | other results
c1cc(CN2CCCNCCNCCCNCC2)ccc1CN1CCCNCCNCCCNCC1 [AMD3100] | – | – | – | – | – | – | – | – | – | – | – | mobilization capacity of G-CSF (CD34+ cells; in combination with G-CSF in mice): significantly improves; mobilization of CD34+ cells (CD34+ cells; on its own): adequately
pal-SGRRYGHALR (Palmitoyl-SGRRYGHALR) [PAR4 antagonist] | 6.4 | more | significantly enhanced | 46.34 ± 4.23 | 4.41 ± 2.08 | 3.53 ± 1.49 | 39.63 ± 3.52 | 16.16 ± 7.26 | 50.58 ± 9.74 | 41.06 ± 12.93 | 2.93 ± 1.54 | B cell numbers in the spleen (spleen cells; summary of Table 1): reduced; B cell numbers in the BM (bone marrow (BM) cells; Table 2): reduced
pal-RCLSSSAVANRS (Palmitoyl-RCLSSSAVANRS) [PAR1 antagonist] | 15.3 | more | significantly enhanced | 50.57 ± 4.36 | 3.99 ± 2.42 | 2.96 ± 1.18 | 39.59 ± 3.41 | 13.42 ± 5 | 38.26 ± 5.31 | 34.40 ± 5.16 | 2.28 ± 0.46 | Lin−Kit+Sca+ stem cell number in the blood and the spleen (Lin−Kit+Sca+ stem cell; co-treatment with G-CSF): highest increase; Lin−Kit+Sca+ stem cell numbers in the bone marrow (Lin−Kit+Sca+ stem cell; co-treatment with G-CSF): clearly enhanced; Lin−Kit+Sca+ stem cells numbers in the blood and especially in the BM (Lin−Kit+Sca+ stem cell; without G-CSF treatment): marked enhancement
zymosan | – | – | – | – | – | – | – | – | – | – | – | time to mobilize HSPC (HSPC): ≤ 1 h
CCCCCCOC(=O)NC(=N)c1ccc(NCc2nc3cc(C(=O)N(CCC(=O)OCC)c4ccccn4)ccc3n2C)cc1 [Dabigatran, Dabigatran etexilate, reference compound] | – | – | – | – | – | – | – | – | – | – | – | G-CSF induced splenomegaly (C57BL mice; in conjunction with G-CSF 250 μg per kg per day s.c. for 7 days, Dabigatran etexilate 30 mg/kg orally daily, FIG. 1): marked enhancement
G-CSF: recombinant human G-CSF (Neupogen, Amgen) (protein, UniProt P09919 31-207, looked up, filgrastim) Granulocyte …: TPLGPASSLPQSFLLKCLEQVRKIQGDGAALQEKLVSECATYKLCHPEELVLLGHSLGIPWAPLSSCPSQALQLAGCLSQLHSGLFLYQGLLQALEGISPELGPTLDTLQLDVADFATTIWQQMEELGMAPALQPTQGAMPAFASAFQRRAGGVLVASHLQSFLEVSYRVLRHLAQP | – | – | – | 47.37 ± 1.33 | 10.21 ± 2.69 | 8.16 ± 2.07 | 34.16 ± 3.17 | 3.18 ± 1.01 | 77.06 ± 7.38 | 74.37 ± 7.79 | 0.98 ± 0.85 | enhancement of spleen colonies ([1]; Factor VIII knock out (KO) mice, upon treatment with G-CSF): 15.9 fold; mobilization of progenitors (CFU/spleen), enhancement as compared to non-treated mice ([1]; G-CSF treatment alone, 7 days, C57BL mice, FIG. 3): 2.8 fold; number of granulocytes and macrophages in the spleen (spleen cells; after G-CSF treatment, summary of Table 1): marked elevation; number of granulocytes and macrophages in the BM (bone marrow (BM) cells; after G-CSF treatment, Table 2): marked elevation; hematopoietic stem cell (HSC) mobilization and splenomegaly (C57BL/6 mice): induced
